According to ChEMBL document CHEMBL1157539, “Thousands of chemical starting points for antimalarial lead identification” (Nature, 2010):

These compounds were tested on Plasmodium falciparum (assay: GSK_TCMDC: Inhibition of Plasmodium falciparum 3D7 in whole erythrocytes, using parasite LDH activity as an index of growth.). Settings: not given.
Assay type: functional, organism-based

SMILES	XC50
COc1ccc(C=CC(=O)NC2CCC(CN3CCC(c4c[nH]c5ccccc45)CC3)CC2)cc1OC (configuration not stated)	841 nM

Same assay, conditions: Plasmodium falciparum, 3D7

SMILES	XC50
O=C(NC(NC(=S)Nc1ccc([N+](=O)[O-])cc1)C(Cl)(Cl)Cl)c1cccc(Cl)c1 (configuration not stated)	731 nM
COc1ccc(-c2cc(-c3ccc(S(C)(=O)=O)cc3)cnc2N)cn1	187 nM
COc1ccc2nccc([C@@H](O)CN3CCC(NCc4cc5sccc5nc4C(F)(F)F)CC3)c2c1	913 nM
Cc1cc2c(cc1C(F)(F)F)N(C(=O)Nc1cc(OCCN(C)C)cc(C(F)(F)F)c1)CC2	708 nM
Nc1nc(N)c2c(ccc3c2ccn3Cc2cc3c(cc2Cl)OCO3)n1	3.2 nM
Cc1ccnc(NC(=O)c2cc(-c3cccc([N+](=O)[O-])c3)nc3onc(C)c23)c1	888 nM
c1ccc(CNCc2cccc(-c3ccc(-c4nc5ccccc5[nH]4)cc3)c2)cc1	822 nM
Cc1cc(O)nc(NC#N)n1	166 nM
Cc1ccccc1N1CCN(c2ccc(C(=O)Nc3ccccc3)cc2)CC1	723 nM
O=C(/C=C/c1ccc(Cl)c(Cl)c1)NCCC1CCC(N2CCC(c3c[nH]c4ccc(O)cc34)CC2)CC1 (configuration not stated)	762 nM
Cc1cc(=O)c(-c2ccc(Oc3cccc(OC(F)(F)F)c3)cc2)c(C)[nH]1	202 nM
COc1cccc(CN(C(=O)Nc2ccccc2F)[C@H]2C[C@H]3C(=O)Nc4cc(F)ccc4C(=O)N3C2)c1	841 nM
Cc1cc(N[C@@H](Cc2ccccc2)C(=O)Nc2ccccc2)nc(Nc2ccccc2)n1	1010 nM
O=[N+]([O-])c1cccc(CNCC2CCN(Cc3ccc(Cl)c(Cl)c3)CC2)c1	913 nM
Cc1ccnc2nc(C(=O)Nc3cc(Cl)ccc3N3CCOCC3)nn12	1240 nM
CN1CCCC(CN2CCN(Cc3cccc(-c4ccc(-c5nc6cc(F)ccc6[nH]5)cc4)c3)CC2)C1 (configuration not stated)	139 nM
CC(Cc1ccc(OCCCCOc2ccccc2)cc1)NCCCc1nc2ccccc2[nH]1 (configuration not stated)	981 nM
COc1ccc(-c2cc(C(=O)N[C@@H](CC3CCCCC3)C(=O)NCCN3CCCC3)ccc2O)cc1	868 nM
COc1ccc(-c2cnn3ccc(Nc4cc(OC)c(OC)c(OC)c4)nc23)cc1OC	650 nM
COC(=O)c1ccc(CCC(C)NCC(O)c2cccc(Cl)c2)cc1 (configuration not stated)	670 nM
Cc1cccc2nc(-c3ccc(-c4cccc(CNCc5ccc(CN)cc5)c4)s3)[nH]c12	606 nM
NC(=O)c1cc2nc(Nc3ccc(F)cc3)nc(Nc3ccc(S(N)(=O)=O)cc3)c2[nH]1	795 nM
Cc1cccc(-c2nn(-c3ccccc3)c3[nH]c(=O)c(CN4CCSCC4)cc23)c1	1010 nM
COc1ccc(CCN(C)CCc2ccc(NC(=O)c3cccc4c(=O)c5ccccc5sc34)cc2)cc1	859 nM

SMILES	XC50
O=[N+]([O-])c1ccc(Nc2nc(N/N=C/c3cccc(O)c3)nc(N3CCCC3)n2)cc1	1080 nM
Cc1cc(N)c2cc(NC(=O)c3cccc4ccccc34)ccc2n1	844 nM
CCc1c(C)nc(-n2nc(C)cc2NC(=O)CCc2ccccc2)[nH]c1=O	752 nM
O=C(c1ccc([N+](=O)[O-])o1)N1CCN(c2nc3c(F)cc(F)cc3s2)CC1	974 nM
NC(=O)COc1c(C2CCN(CCN3CCC(CNC(=O)c4ccc(-c5ccc(C(F)(F)F)cc5)cc4)CC3)CC2)ccc2c1CCCC2	969 nM
COc1ccc(Nc2ncc3c(-c4cccc(NC(=O)Cc5ccncc5)c4)c[nH]c3n2)cc1OC	1230 nM
Oc1c(C(Nc2nc3ccccc3s2)c2ccccc2)ccc2cccnc12 (configuration not stated)	646 nM
O=C(NCc1cccc(F)c1)Nc1cccc(-c2ccc(-c3nc4cc(F)ccc4[nH]3)cc2)c1	1050 nM
COc1cc2nc(N3CCC(CNC(=O)c4ccc(-c5ccc(C(=O)N(C)C)cc5OCCN(C)C)cc4)CC3)nc(N)c2cc1OC	842 nM
CC(C)c1cc(Oc2c(I)cc(CCNC(=N)N)cc2I)ccc1O	788 nM
CCOC(=O)C1=C(C)NC2=C(C(=O)CC(C)(C)C2)C1c1ccc(Br)cc1 (configuration not stated)	1160 nM
Cc1cccc2nc(-c3ccc(-c4cccc(CN5CCC(C(N)=O)CC5)c4)s3)[nH]c12	1260 nM
C[C@H](Cc1ccc(OCCCCOc2ccc(C[C@@H](C)NC[C@H](O)c3cccc(Cl)c3)cc2)cc1)NC[C@H](O)c1cccc(Cl)c1	756 nM
CC1(C)N=C(N)N=C(N)C1c1ccc(Cl)cc1 (configuration not stated)	259 nM
COC(=O)CCCCOc1cc(Cc2cnc(N)nc2N)cc(OC)c1OC	173 nM
Cc1cc(NC(=O)c2cc(S(=O)(=O)N3CCCCC3)ccc2C)no1	725 nM
O=C(c1cnn(-c2ccccc2)c1C(F)(F)F)N1CCN(c2ccnc3cc(Cl)ccc23)CC1	532 nM
O=S(=O)(c1ccccc1Cl)N1CCCCC(c2ccc(C(F)(F)F)cc2)=N1	942 nM
CN(C)CCNc1cc(-c2ccc3ccccc3c2)nc2ccccc12	350 nM
O=C1c2ccccc2C(=O)N1c1ccc(S(=O)(=O)N2CCOCC2)cc1	1260 nM
NS(=O)(=O)c1cccc(Nc2nccc(-c3c(-c4cccc(NC(=O)c5c(F)cccc5F)c4)nn4ccccc34)n2)c1	73.6 nM
CN1CCN(CC(=O)Nc2cccc(-c3cccc(-c4nc5cc(F)ccc5[nH]4)c3)c2)CC1	741 nM
N=C(N)NN=Cc1c[nH]c2ccc(-c3ccccc3)cc12	528 nM
NCCNC(=O)c1ccc(-c2cnc3[nH]cc(-c4ccc(C(N)=O)cc4)c3c2)cc1	171 nM

SMILES	XC50
Cn1nc(-c2cccc(CN[C@@H]3CCc4ccc(O)cc43)c2)c2cnc(NCCCN3CCCC3)nc21	831 nM
Cn1cc(C2CCN(CCCCNC(=O)c3ccc(C(=O)Nc4ccc(C#N)cc4)cc3)CC2)c2ccccc21	724 nM
CCn1c(-c2nc(-c3ccnc(N4CCN(C)CC4)c3)cnc2N)nc2cc(S(C)(=O)=O)ccc21	815 nM
CCN(CC)CCCN(Cc1ccc(-c2ccc(C(F)(F)F)cc2)cc1)C(=O)Cn1c(SCc2cccc(F)c2F)cc(=O)c2ccccc21	1320 nM
CC(=O)Nc1cccc(C(=O)Nc2ccc(-c3cccc(-c4nc5cc(F)ccc5[nH]4)c3)cc2)c1	633 nM
O=C(N[C@@H](Cc1ccccc1)[C@H](O)CNC1CCOCC1)c1cc(C2CCCC2)cc(N2CCCCS2(=O)=O)c1	202 nM
CCCCCn1c(Sc2ccc(C#N)c([N+](=O)[O-])c2)nnc1-c1ccccc1	860 nM
CN(Cc1ccccc1)C1CCN(CCc2c[nH]c3ccc(F)cc23)CC1	597 nM
CCc1cn2c3c(cc(C(=O)N[C@@H](Cc4cccc(Cl)c4)[C@H](O)CNC4CCOCC4)cc13)N(C)S(=O)(=O)CC2	44.2 nM
CC(C)Cn1c(Sc2ccc(C#N)c([N+](=O)[O-])c2)nnc1-c1ccc(N(C)C)cc1	220 nM
COC(=O)c1ccc(-c2ccc(C(=O)NCC3CCN(c4nc(N)c5cc(OC)c(OC)cc5n4)CC3)cc2)cc1	185 nM
O=C(/C=C/c1ccc(Cl)c(Cl)c1)NCCCCCN1CCC(NC(=S)Nc2ccc(Cl)c(Cl)c2)CC1	528 nM
Cc1cc(NC(=O)c2cccs2)ccc1OC1CCN(Cc2ccccc2)C1 (configuration not stated)	895 nM
CCc1nc2c(cnn2CC)c(NC2CCOCC2)c1CNC(=O)c1ccoc1C	886 nM
CN1C(=O)OC[C@@H]1Cc1ccc2[nH]cc(C3=CCN(Cc4ccccc4)CC3)c2c1	417 nM
O=C(NOCCOc1ccccc1)c1ccccc1	317 nM
CN1CCC(N2CCN(Cc3cccc(-c4ccc(-c5nc6cc(C(F)(F)F)ccc6[nH]5)cc4)c3)CC2)CC1	140 nM
COc1cc(Br)ccc1N1CCN(CCCCNC(=O)c2ccc(NC(=O)c3ccc(Cl)cc3)cc2)CC1	758 nM
N#Cc1ccc(N/C(=N\c2cccc(Cl)c2Cl)NC2Cc3ccccc3C2)c(O)c1	832 nM
CO/C(=C\C=C\c1cc2cc(Cl)c(Cl)cc2[nH]1)C(=O)NC1CCN(CCNc2ccccc2)CC1	258 nM
CNCCCCCCc1ccc(CC(C)NCC(O)c2cccc(Cl)c2)cc1 (configuration not stated)	854 nM
CC[C@H]1CN2CC[C@H]1C[C@H]2[C@H](O)c1ccnc2ccc(O)cc12	643 nM
Cc1nc(-c2cccc(Nc3nccc(NCC(O)c4ccccc4C)n3)c2)cs1 (configuration not stated)	890 nM
Cc1ccc(Cn2ncc(N3CCNCC3)c(Cl)c2=O)cc1NC(=O)Nc1ccc(-c2ccccc2)cc1	1120 nM

SMILES	XC50
CC(C)n1ncc2c(C(=O)N3CCCCCC3)cc(-c3ccccc3)nc21	789 nM
O=C(/C=C/c1ccc(Cl)c(Cl)c1)NCCCCCN1CCCN(C(=O)Nc2cccc(Cl)c2)CC1	669 nM
Cc1c(Cn2ncc(N3CCC(N)CC3)c(Cl)c2=O)cccc1NC(=O)Nc1ccc(-c2ccccc2)cc1	697 nM
CCC1(C)N=C(N)N=C(N)N1c1ccc(Cl)cc1 (configuration not stated)	159 nM
CCN(CC)CCN1C(=O)c2oc3ccc(Cl)cc3c(=O)c2C1c1ccc(SC)cc1 (configuration not stated)	1060 nM
CC(C)(C)SCC(O)Cn1c2ccc(Br)cc2c2cc(Br)ccc21 (configuration not stated)	1000 nM
CCn1ccc2c(N3CCCC3=O)cc(C(=O)N[C@@H](Cc3ccccc3)[C@H](O)CNCc3cccc(OC)c3)cc21	588 nM
CC(C)(C)c1ccc(CN2CCC(NC(=O)c3ccc(-c4cccc(F)c4)s3)CC2)cc1	1090 nM
N#Cc1cccc(C(=O)Nc2ccc(-c3cccc(CN4CCCC4)c3)cc2)c1	712 nM
O=c1ccc(-c2nc3cc(Cl)c(Cl)cc3n2Cc2ccc(Cl)cc2Cl)c[nH]1	1110 nM
O=c1cc(NCCCNC2CCCc3c2cc(Cl)c(Cl)c3Cl)[nH]c2ccccc12 (configuration not stated)	276 nM
Nc1ncnc2cc(-c3cccc(S(N)(=O)=O)c3)sc12	151 nM
Oc1ccc(Br)cc1C(O)CNCc1ccccc1OCc1ccccc1 (configuration not stated)	167 nM
CC[C@H]1CN2CCc3c([nH]c4ccccc34)[C@@H]2C[C@@H]1CC1c2cc(OC)c(OC)cc2CCN1C (some centres not stated)	1090 nM
COc1cc2nc(SCC(C)C)n(CCCn3ccnc3)c(=N)c2cc1OC	610 nM
O=C(OCC1CCN(Cc2ccccc2)C1)c1ccc(Cl)cc1 (configuration not stated)	680 nM
CN1Cc2ccc(NS(=O)(=O)c3ccc(-c4ccoc4)cc3)cc2C1	160 nM
O=C(NC1CCC(CN2CCC(c3c[nH]c4ccccc34)CC2)CC1)c1cc(-c2ccccc2Cl)oc1C(F)(F)F (configuration not stated)	771 nM
O=C(CCCCCCc1ccccc1)Nc1ccc2nc3c(c(NCc4ccccc4)c2c1)CCCC3	358 nM
O=C(NCCN1CCCC1)c1cccc(-c2ccc(-c3nc4ccccc4[nH]3)cc2)c1	919 nM
COc1ccc2[nH]cc(C3=CCN(Cc4ccccc4)CC3)c2c1	569 nM
CN(c1ncc(-c2cccc(CNCc3ccccc3O)c2)cn1)C1CCCCC1	822 nM
COc1ccc(C=CC(=O)NC2CCC(CN3CCC(c4c[nH]c5ccccc45)CC3)CC2)cc1OC (configuration not stated)	801 nM
CC(=O)c1ccc(NC(=O)C2c3ccccc3C(=O)N(CC(C)C)C2c2cccs2)cc1 (configuration not stated)	1320 nM
